Key:
[1] = test system: NCIH460, HCT116, MDAMB-231/U 251; assay: Anti-cancer screen, mean GI50 over the cell lines; format: cell-based
Procedure: (§1) Experimental drugs are screened for anti-cancer activity in three cell lines for their GI50, TGI and LC50 values (using five concentrations for each compound). The cell lines are maintained in DMEM containing 10% fetal bovine serum. 96 well micro titer plates are inoculated with cells in 100 μL for 24 hours at 37° C., 5% CO2, 95% air and 100% relative humidity. 5000 HCT116 cells/well, 5000 NCIH460 cells/well and 5000 U251 cells/well are plated. A separate plate with these cell lines is also inoculated to determine cell viability before the addition of the compounds (T0), (See Table I).
(§2) Following 24-hours incubation, experimental drugs are added to the 96 well plates. Each plate contains one of the above cell lines and the following in triplicate: five different concentrations (0.01, 0.1, 1, 10 and 100 μM) of four different compounds, appropriate dilutions of a cytotoxic standard and control (untreated) wells. Compounds are dissolved in DMSO to make 20 mM stock solutions on the day of drug addition and frozen at −20° C. Serial dilutions of these 20 mM stock solutions are made in complete growth medium such that 100 μL of these drug solutions in medium, of final concentrations equaling 0.01, 0.1, 1, 10 and 100 μM can be added to the cells in triplicate. Standard drugs whose anti-cancer activity has been well documented and which are regularly used are Doxorubicin and SAHA, (See Table I).
(§3) For T0 measurement, 24 hours after seeding the cells, 10 μL of 3-(4,5-Dimethyl-2-thiazolyl)-2,5-diphenyl-2H-tetrazolium (MTT) solution per well is added and incubation carried out for 3 hours at 37° C., 5% CO2, 95% air and 100% relative humidity, protected from light. Cells incubated with compounds for 48 hours are treated similarly except with the addition of 20 μL MTT solution per well and a subsequent incubation under the same conditions. After 3 hours of MTT incubation, well contents are aspirated carefully followed by addition of 150 μL DMSO per well. Plates are agitated to ensure solution of the formazan crystals in DMSO and absorbance read at 570 nm, (See Table I).
(§4) Percent growth is calculated for each compound's concentration relative to the control and zero measurement wells (T0; viability right before compound addition). If a test well's O.D. value is greater than the T0 measurement for that cell line % Growth=(test−zero)/(control−zero)×100

HCT116 cells = assay: Anti-cancer screen (MTT), HCT116 cells; format: cell-based; details: Homo sapiens, HCT-116, HCT116, 48 hours, concentrations tested 0.01-100 μM
Procedure: as §1, §2, §3, §4

MDAMB-231/U 251 = assay: Anti-cancer screen (MTT), MDAMB-231/U 251 cells; format: cell-based; details: MDAMB-231/U 251, 48 hours, concentrations tested 0.01-100 μM; for CC50: read-out: LC50 (the source's name)
Procedure: as §1, §2, §3, §4

NCIH460 cells = assay: Anti-cancer screen (MTT), NCIH460 cells; format: cell-based; details: Homo sapiens, NCI-H460, NCIH460, 48 hours, concentrations tested 0.01-100 μM; for CC50: read-out: LC50 (the source's name)
Procedure: as §1, §2, §3, §4

IL-6 = IL-6 in culture supernatants of NCIH 460 cells (ELISA); format: cell-based, Human; details: Homo sapiens, NCI-H460, NCIH 460, 5 hours
Procedure: Human Lung Cancer cell line (NCIH 460) is used for IL-6 measurement. 5000 cells/well were seeded in a 96 well plate and incubated in CO2 incubator at 37° C. for 24 hours. After 24 hours of incubation the medium from all wells were completed removed and added 100 μl of fresh DMEM containing 10% FCS. 100 μl of different concentrations of the drug were added and incubated for 5 hours in CO2 incubator at 37° C. After 5 hours of incubation the supernatants were collected and stored at −80° C. The concentration of IL-6 in the supernatant was measured using ELISA kit and the IC50 value of the compound was determined from the dose response curve, (See Table II).

SMILES	GI50 [1] [µM]	GI50 (HCT116 cells) [µM]	IC (TGI) (HCT116 cells) [µM]	LC50 (concentration for 50% net cell kill relative to T0) (HCT116 cells) [µM]	GI50 (MDAMB-231/U 251) [µM]	IC (TGI) (MDAMB-231/U 251) [µM]	CC50 (MDAMB-231/U 251) [µM]	GI50 (NCIH460 cells) [µM]	IC (TGI) (NCIH460 cells) [µM]	CC50 (NCIH460 cells) [µM]	inhibition at 10 µM (IL-6) [%]	IC50 (IL-6; read-out: IL-6 Inhibition IC50) [µM]	inhibition at 1 µM (IL-6; 1 μM) [%]
OC(COc1cccc2[nH]c3ccccc3c12)CN1CCCC1 (stereo not drawn) [Example 6, 1-(9H-carbazol-4-yloxy)-3-pyrrolidin-1-ylpropan-2-ol]	10.5	> 100	> 100	> 100	> 100	> 100	> 100	10	42	75			
COc1cc(NCC(O)COc2cccc3[nH]c4ccccc4c23)cc(OC)c1OC (stereo not drawn) [Example 8]	8.6	5.8	22	90	5	50	> 100	15	45	75			
Cc1cc(C)nc(NCC(O)COc2cccc3[nH]c4ccccc4c23)n1 (stereo not drawn) [Example 15, 1-(9H-carbazol-4-yloxy)-3-[(4,6-dimethylpyrimidin-2-yl)amino]propan-2-ol]	8	> 100	> 100	> 100	8	> 100	> 100	> 100	> 100	> 100			
OC(CNc1nc2ccccc2[nH]1)COc1cccc2[nH]c3ccccc3c12 (stereo not drawn) [Example 19, 1-(1H-Benzimidazol-2-ylamino)-3-(9H-carbazol-4-yloxy)propan-2-ol]	28.7	27	52	79	51.5	67	85	7.5	35	70.5			
OC(CNCc1ccccc1)COc1cccc2[nH]c3ccccc3c12 (stereo not drawn) [Example 23, 1-(9H-carbazol-4-yloxy)-3-benzylaminopropan-2-ol]	6.6	18	47	77	1	10	65	0.79	35	70	29.3	24	
O=[N+]([O-])c1ccc(CN2CCN(CC(O)COc3cccc4[nH]c5ccccc5c34)CC2)o1 (stereo not drawn) [Example 26, 1-(9H-carbazol-4-yloxy)-3-{4-[(5-nitro-2-furyl)methyl]piperazin-1-yl}propan-2-ol]	20.7	30	48	68	30	85	> 100	2	22	70			
O=[N+]([O-])c1ccc(CN2CCN(CC(O)COc3cccc4[nH]c5ccccc5c34)CC2)s1 (stereo not drawn) [Example 27, 1-(9H-carbazol-4-yloxy)-3-{4-[(5-nitro-2-thienyl)methyl]piperazin-1-yl}propan-2-ol]	25.9	30	60	90	2.8	48	> 100	45	98	> 100			
COc1cc(CN2CCN(CC(O)COc3cccc4[nH]c5ccccc5c34)CC2)cc(OC)c1 (stereo not drawn) [Example 30, 1-(9H-carbazol-4-yloxy)-3-[4-(3,5-dimethoxybenzyl)piperazin-1-yl]propan-2-ol]	19.2	25	72	84	2.5	9	70	30	60	90			
OC(COc1cccc2[nH]c3ccccc3c12)CN1CCN(Cc2ccc(F)c(F)c2)CC1 (stereo not drawn) [Example 31, 1-(9H-carbazol-4-yloxy)-3-[4-(3,4-difluorobenzyl)piperazin-1-yl]propan-2-ol]	25.7	38	66	92	4	7	10	35	90	65			
O=C(c1ccc([N+](=O)[O-])o1)N1CCN(CC(O)COc2cccc3[nH]c4ccccc4c23)CC1 (stereo not drawn) [Example 35, 1-(9H-carbazol-4-yloxy)-3-{4-(5-nitro-2-furoyl)piperazin-1-yl}propan-2-ol]	3.27	6	42	85	3	> 100	> 100	0.8	7.5	60	80.4		45
Cc1cccc2sc(NC(=O)CN3CCN(CC(O)COc4cccc5[nH]c6ccccc6c45)CC3)nc12 (stereo not drawn) [Example 59, 2-{4-[3-(9H-carbazol-4-yloxy)-2-hydroxypropyl]-piperazin-1-yl}-N-(4-methyl-1,3-benzothiazol-2-yl)acetamide]	28.2	> 100	> 100	> 100	47	> 100	> 100	9.5	> 100	> 100			
Cc1csc(NC(=O)CN2CCN(CC(O)COc3cccc4[nH]c5ccccc5c34)CC2)n1 (stereo not drawn) [Example 60, 2-{4-[3-(9H-carbazol-4-yloxy)-2-hydroxypropyl]-piperazin-1-yl}-N-(4-methyl-1,3-thiazol-2-yl)acetamide]	25	26	62	100	> 100	> 100	> 100	24	61	85			
O=C(Cc1ccc(F)cc1)N1CCC(NCC(O)COc2cccc3[nH]c4ccccc4c23)CC1 (stereo not drawn) [Example 66]	18.3	26	49	84	15	48	77	14	54	79			
N#Cc1ccc(C(=O)N2CCC(NCC(O)COc3cccc4[nH]c5ccccc5c34)CC2)cn1 (stereo not drawn) [Example 70, 1-(9H-carbazol-4-yloxy)-3-{[1-(6-cyanonicotine-3-carbonyl)piperidin-4-yl]amino}propan-2-ol]	10.5	5	23	67	3.5	8.9	57	23	50	78			

Source: US7786142B2, “Heterocyclic compounds as pSTAT3/IL-6 inhibitors” (Orchid Research Laboratories, Ltd., priority 2005, dated 2010)
